Laboratory results taken from US10512699B2 (Cedars-Sinai Medical Center, priority 2008, dated 2019).

Columns and labels:
Aβ plaques [1] = biological target: T1, Aβ plaques (Homo sapiens, UniProt P05067); test: Ex vivo curcumin staining of brain cryosections and retinas of AD-Tg mice; format: binding, mouse
Description: Brain cryosections (30 μm thick), retina cross sections (cryosections) (7 μm thick) and whole mount retinas were treated with a permeabilization/blocking solution containing 20% horse serum (Invitrogen) and 0.01-0.1% Triton X-100 (Sigma-Aldrich, St. Louis, Mo.). Sections were stained overnight at 4° C. with a specified combination of the following primary Abs in PBS containing 10% blocking solution: mouse anti-Aβ [human amino-acid residues 1-17; clone 6E10 (1:100; Milipore, Temecula, Calif.)]. […]
Micrographs of stained tissues were obtained on an Axio Imager Z1 ApoTome-equipped microscope (with motorized Z-drive) with AxioCam MRm monochrome camera ver. […] Quantitative analysis of Aβ plaque number and area (mm^2) was performed from two wholemounted retinas per mouse (n=4 mice per group). […] Quantitative analysis of Aβ plaque number and area (mm^2) in the brain was determined from three coronal sections (two hemispheres each) per mouse with 450 μm intervals, over an area covering hippocampal and cortical regions. […] Total area and quantitative levels of immunoreactivity were determined using a standardized custom histogram-based threshold technique, and then subjected to particle analysis.

Aβ plaques [2] = biological target: T1, Aβ plaques; test: Ex vivo curcumin staining of postmortem human whole-mount retinas; format: binding
Text: We also analyzed the human retinas with antibodies directed against human Aβ.
Autopsy eyes from Alzheimer's patients were procured from the Alzheimer's Disease Research Center, Department of Pathology, University of Southern California (Los Angeles, Calif.), under IRB protocols 99491 and 3201. Healthy donor eyes were purchased from National Disease Research Interchange (NDRI, Philadelphia, Pa.). NDRI has a human tissue collection protocol approved by a managerial committee and subject to National Institutes of Health oversight. Diseased and normal eyes were fixed and stored in 10% neutral buffered formalin. In addition, we used two healthy eyes that were frozen without fixation and stored at −80° C. Whole-mount retinas were prepared from the eyes and further studied by immunohistochemisty.
The samples were covered with GVA mounting media (Zymed).

Aβ plaques [3] = biological target: T1, Aβ plaques; test: In vivo labeling of Aβ plaques after systemic curcumin administration, tissues examined afterwards; parameters: species or system mouse
Description: Mice were anesthetized and perfused with 4% ice-cold buffered PFA, and a group of mice were not perfused. Their eyes were enucleated and fixed immediately in 4% fresh PFA overnight. For whole mount retinas, the eyes were dissected and the anterior part was removed. The eyecups were soaked for 10 minutes in hyaluronidase (type I-S) (0.07 mg/ml) (Sigma) to liquefy and remove the vitreous residues, than washed for 10 minutes×3 in PBS, and the whole mount retinas were collected. For whole eye sectioning, the eyes were put in 30% sucrose in 4% PFA for 2 hours, than washed for 15 minutes×3 in PBS. The eyes were embedded in O.C.T and frozen slowly on dry ice than sagittal sectioned (7 μm) with cryostat. Brains were collected and fixed immediately in 4% fresh PFA overnight. The brains were put in 30% sucrose (in 4% PFA) gradient. Brains were washed for 15 minutes×3 in PBS, next embedded in O.C.T and frozen slowly on dry ice, then coronal sectioned (30 μm) with cryostat. […] Subsequently, brains and eyes were cryosectioned, or prepared for whole mount retina.

Aβ plaques [4] = biological target: T1, Aβ plaques; test: In vivo imaging of the retina in live mice after curcumin injection; parameters: species or system mouse; details: single injection 7.5 mg/kg, two hours prior to imaging, excitation 546/15 nm, AD-Tg mice
Description: To investigate the feasibility of our approach for noninvasive plaque detection, we conducted an in vivo imaging of the retina in live mice using a modified stereomicroscope (Leica S6E) with a wavelength-controlled light source and a digital camera.
Mice were anaesthetized with Ketamine 100 mg/ml/kg and Xylazine 20 mg/ml/kg. Mouse pupils were dilated to about 2 mm in diameter with 0.5% phenylephrine hydrochloride ophthalmic solution (Bausch & Lomb) combined with 0.5% tropicamide ophthalmic solution (Mydral; Bausch & Lomb). During the imaging process, the mice were positioned on a stage of the stereomicroscope, and the eye was covered with a drop of PBS supplemented with calcium and magnesium, which served as an optical coupling medium between the eye surface and the imaging lens. A modified stereomicroscope (Leica S6E) that was adjusted to visualize fluorescence and scatter signals at higher resolution was used to capture images (exposure time 750 ms. with gain 4). The modified stereomicroscope was assembled to include a Polychrome V (Till Photonics) variable wavelength light source, a MicroFire color digital camera (Optronics), and an additional 6× (double convex) magnifying lens, with a focal length of 10 cm. Images were repeatedly captured at several different angles, in order to visualize a larger field and to eliminate non-specific reflection signals.

T1 sequence (P05067 672-713 limits assumed): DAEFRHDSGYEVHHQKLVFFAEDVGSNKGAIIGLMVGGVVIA

Co-localization of curcumin with anti-human Aβ immunolabeling (Aβ plaques [2]; human AD retinas, curcumin after immunolabeling): confirmed their co-localization | Plaques detected by curcumin in human retinas (Aβ plaques [2]; postmortem AD patient eyes (n=9), after Sudan Black B, none in non-AD eyes): found in all AD patient eyes examined | Affinity for Aβ plaques in vivo (Aβ plaques [3]; mice, intravenous injection): high affinity for Aβ plaques in vivo | Blood-brain barrier crossing (Aβ plaques [3]; mice, intravenous injection): crosses the blood-brain barrier | Blood-retina barrier crossing (Aβ plaques [3]; mice, intravenous injection): also crosses the blood-retina barrier | Visibility of curcumin-labeled plaques in live mouse retina (Aβ plaques [4]): curcumin-labeled plaques were visible
Structure (SMILES): COc1cc(/C=C/C(=O)CC(=O)/C=C/c2ccc(O)c(OC)c2)ccc1O [curcumin, diferuloylmethane]
Curcumin staining of plaques detected by anti-human Aβ antibodies (Aβ plaques [1]; hippocampus of AD-Tg mice, brain cryosections, ex vivo): had an affinity to the same plaques that were detected by antibodies specific to human Aβ | Curcumin labeling of retinal Aβ plaques (Aβ plaques [1]; retinas of AD-Tg mice, whole mount and cross-section, not in non-Tg (wt) mice): presence of Aβ plaques labeled by both curcumin and anti-human AP-antibodies | Detection of labeled plaques following administered curcumin (Aβ plaques [3]; i.v., single or multiple injections, retinas and brains): could be detected in the retinas and brains of AD-Tg mice, but not in the non-Tg (wt) controls | Detection of retinal Aβ plaques (Aβ plaques [3]; systemically at a single dose of 7.5 mg/kg or given orally): effective in detecting retinal Aβ plaques
